# Measured values from US8772266B2, “Fungicide pyrazole carboxamides derivates” (Bayer Cropscience AG, priority 2009, dated 2014).
# Columns and labels:
# Tetranychus urticae = assay: Spray application test on Tetranychus urticae; type: in vivo; conditions: 500 g of active ingredient/ha; after 6 days
# Description: Solvent: 78.0 parts by weight acetone • 1.5 parts by weight dimethylformamide
# Emulsifier: 0.5 parts by weight alkylarylpolyglcolether
# French beans (Phaseolus vulgaris) which are heavily infested with all stages of the two spotted spidermite (Tetranychus urticae), are sprayed with a preparation of the active ingredient at the desired concentration.
# After 6 days, mortality in % is determined. 100% means that all spider mites have been killed and 0% means that none of the spider mites have been killed.
# Fusarium nivale = assay: In vivo curative test on Fusarium nivale (wheat); conditions: 500 ppm of active ingredient, evaluated 8 days after inoculation
# [1] = logP by HPLC on reversed-phase column (EEC Directive 79/831 Annex V.A8); conditions: 40° C., 0.1% aqueous formic acid and acetonitrile, linear gradient 10% to 90% acetonitrile
# Sphaerotheca fuliginea = assay: In vivo preventive test on Sphaerotheca fuliginea (cucumber), Example G; conditions: 10 ppm of active ingredient, evaluated 7 days after inoculation
# Text: After the spray coating has dried on, the plants are inoculated with an aqueous spore suspension of Sphaerotheca fuliginea.
# [2] = HPLC, reversed-phase column (C 18)
# [3] = HPLC on reversed-phase column (C 18)
SMILES,mortality in % (Tetranychus urticae) [%],disease control (Fusarium nivale) [%],"logP [1, 2]",disease control (Sphaerotheca fuliginea) [%],"logP [1, 3]"
Cn1nc(C(F)F)c(C(=O)N(Cc2c(C(F)(F)F)ccc(Cl)c2F)C2CC2)c1F [Example 5],80,100,3.62,100,
Cn1nc(C(F)F)c(C(=O)N(Cc2cc(Cl)ccc2C(F)(F)F)C2CC2)c1Cl [Example 36],,100,4.01,,
Cn1nc(C(F)F)c(C(=O)N(Cc2cc(Cl)ccc2[Si](C)(C)C)C2CC2)c1F [Example 24],,100,4.81,100,
Cn1nc(C(F)F)c(C(=O)N(Cc2cc(Cl)ccc2Br)C2CC2)c1F [Example 4],,100,3.67,,
Cn1nc(C(F)F)c(C(=O)N(Cc2ccccc2C(F)(F)F)C2CC2)c1F [Example 61],,100,3.39,,
Cn1nc(C(F)F)c(C(=O)N(Cc2ccc(Cl)cc2I)C2CC2)c1F [Example 20],,100,3.99,,
Cn1nc(C(F)F)c(C(=O)N(Cc2cc(Cl)c(Cl)cc2C(F)(F)F)C2CC2)c1F [Example 25],,100,4.34,,
CCc1cc(C)c(C)cc1CN(C(=O)c1c(C(F)F)nn(C)c1F)C1CC1 [Example 53],,100,4.04,,
Cn1nc(C(F)F)c(C(=O)N(Cc2ccccc2SC(F)(F)F)C2CC2)c1F [Example 30],80,100,3.74,,
Cn1nc(C(F)F)c(C(=O)N(Cc2c(Cl)cccc2C(F)(F)F)C2CC2)c1F [Example 2],,100,3.46,100,
CC(c1cccc2c1CCC(C)(C)C2)N(C(=O)c1c(C(F)F)nn(C)c1F)C1CC1 (racemic) [Example 44],,100,4.89,,
Cn1nc(C(F)F)c(C(=O)N(Cc2cccc(-c3ccccc3)c2)C2CC2)c1F [Example 64],,100,3.78,,
CC(C)c1ccccc1CN(C(=S)c1c(C(F)F)nn(C)c1F)C1CC1 [Example 131],,,,100,4.36
CC(C)Cc1cccc(Cl)c1CN(C(=O)c1c(C(F)F)nn(C)c1F)C1CC1 [Example 32],,,4.44,100,
Cn1nc(C(F)F)c(C(=O)N(Cc2c(Cl)cccc2Br)C2CC2)c1F [Example 83],,,3.42,100,
Cn1nc(C(F)F)c(C(=O)N(Cc2ccc(Cl)cc2Cl)C2CC2)c1F [Example 63],,100,3.69,,
CC(c1cc(Cl)cc(Cl)c1)N(C(=O)c1c(C(F)F)nn(C)c1F)C1CC1 (racemic) [Example 40],80,100,4.04,,
Cn1nc(C(F)F)c(C(=O)N(Cc2cc(F)c(Br)cc2Br)C2CC2)c1F [Example 16],,100,3.96,,
Cn1nc(C(F)F)c(C(=O)N(Cc2cc(Cl)cc(Cl)c2Cl)C2CC2)c1F [Example 18],,100,4.11,100,

SMILES,mortality in % (Tetranychus urticae) [%],disease control (Fusarium nivale) [%],"logP [1, 2]",disease control (Sphaerotheca fuliginea) [%],"logP [1, 3]"
CC(c1cccc2c1OC(F)(F)O2)N(C(=O)c1c(C(F)F)nn(C)c1F)C1CC1 (racemic) [Example 72],,,3.58,100,
Cc1cc(C)cc(C(C)N(C(=O)c2c(C(F)F)nn(C)c2F)C2CC2)c1 (racemic) [Example 46],,100,3.8,,
CC(C)Cc1ccccc1CN(C(=O)c1c(C(F)F)nn(C)c1F)C1CC1 [Example 33],,100,4.15,,
CC(C)c1ccc(Cl)cc1CN(C(=O)c1c(C(F)F)nn(C)c1F)C1CC1 [Example 29],,100,4.09,100,
CCCCCc1cccc(Cl)c1CN(C(=O)c1c(C(F)F)nn(C)c1F)C1CC1 [Example 27],,,5,100,
Cn1nc(C(F)F)c(C(=O)N(Cc2ccccc2I)C2CC2)c1F [Example 9],,100,3.37,,
Cn1nc(C(F)F)c(C(=S)N(Cc2c(Cl)cccc2C(F)(F)F)C2CC2)c1F [Example 132],,,,100,4.23
Cn1nc(C(F)F)c(C(=O)N(Cc2c([Si](C)(C)C)ccc(F)c2F)C2CC2)c1F [Example 49],,,4.36,100,
CCCCCc1ccccc1CN(C(=O)c1c(C(F)F)nn(C)c1F)C1CC1 [Example 28],,100,4.62,,
Cn1nc(C(F)F)c(C(=O)N(Cc2c(F)cccc2[Si](C)(C)C)C2CC2)c1F [Example 11],,,4.31,100,
CC[Si](CC)(CC)c1ccccc1CN(C(=O)c1c(C(F)F)nn(C)c1F)C1CC1 [Example 14],,100,5.53,100,
Cc1ccc(C(F)(F)F)c(CN(C(=O)c2c(C(F)F)nn(C)c2F)C2CC2)c1 [Example 12],,,3.78,100,
Cn1nc(C(F)F)c(C(=O)N(Cc2cc(I)ccc2C(F)(F)F)C2CC2)c1F [Example 43],,100,4.01,,
Cn1nc(C(F)F)c(C(=O)N(Cc2cc(Cl)ccc2I)C2CC2)c1F [Example 23],,100,3.83,100,
Cc1cc(Br)c(CN(C(=O)c2c(C(F)F)nn(C)c2F)C2CC2)cc1Br [Example 17],,100,4.19,,
CC(c1cc(Cl)ccc1C(F)(F)F)N(C(=O)c1c(C(F)F)nn(C)c1F)C1CC1 (stereo not shown) [Example 101],,,,100,3.92
Cn1nc(C(F)F)c(C(=O)N(Cc2ccccc2C2CC2)C2CC2)c1F [Example 47],,,3.44,100,
Cn1nc(C(F)F)c(C(=O)N(Cc2c(C(F)(F)F)ccc(Cl)c2Cl)C2CC2)c1F [Example 15],,100,3.89,100,
Cn1nc(C(F)F)c(C(=O)N(Cc2c(F)cccc2I)C2CC2)c1F [Example 8],,100,3.26,100,

SMILES,mortality in % (Tetranychus urticae) [%],disease control (Fusarium nivale) [%],"logP [1, 2]",disease control (Sphaerotheca fuliginea) [%],"logP [1, 3]"
CCc1ccccc1CN(C(=O)c1c(C(F)F)nn(C)c1F)C1CC1 [Example 48],,100,3.33,,
CC(c1ncc(Cl)cc1Cl)N(C(=O)c1c(C(F)F)nn(C)c1F)C1CC1 (stereo not shown) [Example 62],,,3.48,100,
Cn1nc(C(F)F)c(C(=O)N(C2CC2)C2CCC(C)(C)c3ccccc32)c1F (stereo not shown) [Example 99],,,4.16,100,
Cn1nc(C(F)F)c(C(=O)N(Cc2c(Br)ccc(F)c2F)C2CC2)c1F [Example 10],,100,3.21,100,
CCCCCc1ccccc1C(C)N(C(=O)c1c(C(F)F)nn(C)c1F)C1CC1 (racemic) [Example 26],,,4.92,100,
Cn1nc(C(F)F)c(C(=O)N(Cc2c(F)cccc2C(F)(F)F)C2CC2)c1F [Example 84],,100,,100,
CCc1ccccc1C(C)N(C(=O)c1c(C(F)F)nn(C)c1F)C1CC1 (stereo not shown) [Example 81],,100,3.69,100,
Cn1nc(C(F)F)c(C(=S)N(Cc2ccccc2)C2CC2)c1F [Example 39],,100,3.44,,
Cn1nc(C(F)F)c(C(=O)N(Cc2cc(Cl)ccc2C2CC2)C2CC2)c1F [Example 41],,100,3.87,100,
CC(c1cccc2c1CCCC2)N(C(=O)c1c(C(F)F)nn(C)c1F)C1CC1 (racemic) [Example 51],,100,4.14,,
Cn1nc(C(F)F)c(C(=O)N(Cc2c(C(F)(F)F)ccc(F)c2F)C2CC2)c1F [Example 68],,,3.31,100,
CC[Si](C)(C)c1ccccc1CN(C(=O)c1c(C(F)F)nn(C)c1F)C1CC1 [Example 13],,,4.75,100,
CC(C)c1ccccc1C(C)N(C(=O)c1c(C(F)F)nn(C)c1F)C1CC1 (stereo not shown) [Example 80],,100,3.99,100,
CC1CCc2cccc(C(C)N(C(=O)c3c(C(F)F)nn(C)c3F)C3CC3)c2C1 (mixture of isomers) [Example 50],,,4.59,100,
Cn1nc(C(F)F)c(C(=O)N(Cc2ccccc2OC(F)(F)F)C2CC2)c1F [Example 105],,100,,,3.46
Cn1nc(C(F)F)c(C(=O)N(Cc2cc(Cl)ccc2C(F)(F)F)C2CC2)c1F [Example 1],80,100,3.8,100,
CC(c1ncc(C(F)(F)F)cc1Cl)N(C(=O)c1c(C(F)F)nn(C)c1F)C1CC1 (stereo not shown) [Example 90],,100,3.71,,
CC(C)Oc1ccc2c(c1)CCCC2N(C(=O)c1c(C(F)F)nn(C)c1F)C1CC1 (stereo not shown) [Example 42],,100,4.11,,
